In experiment [1] the test system is Carboxymethylcellulase 5812. As to the kind of experiment: Substrate specificity of Carboxymethylcellulase 5812 (hydrolytic activities, DNS method / p-nitrophenol release). The format is biochemical, Bacillus sp. PKM-5812. The method, then: (§1) Activities were determined by the DNS method (J. R. Summer and G. F. Somers, Laboratory Experiments in Biological Chemistry, Academic Press, New York, U.S.A., 1944). Namely, 0.1 ml of a suitably diluted enzyme solution was added to 0.9 ml of a 1.1% (w/v) solution of a CMC (A01MC) substrate in 0.1M glycine-NaOH buffer (pH: 9.0). After a 20-minute reaction at 40° C., 1 ml of 0.05% (w/v) 3,5-dinitrosalicylic acid solution (product of Wako Pure Chemical Industries, Ltd.) was added, and the resulting mixture was immediately placed in a boiling water bath for 5 minutes, followed by cooling in an iced water bath. Then, 4 ml of deionized water was added further, afterwhich, colorimetry was conducted by measuring an absorbance at 535 nm. With respect to enzymatic activity, the amount of enzyme, which liberates reducing sugars corresponding to 1 μmole of glucose for 1 minute, was defined as 1 unit.
(§2) Sodium hydroxide- and phosphoric acid-swollen celluloses were prepared according to the method of Tomita et al. [Y. Tomita, H. Suzuki and K. Nisizawa, J. Biochem., 78, 499(1975)]. The reducing sugar liberated was determined in a similar manner to that of the method (a) except that substrate solutions containing cellulose substrates were used, and the reaction was conducted at 30° C.
(§3) The reducing sugar liberated was determined in a similar manner to that of the method (a) except that substrate solutions containing polysaccharides were used, and the reaction was conducted at 30° C.
(§4) A suitably diluted enzyme solution was added to a solution of 8 mM of a PNPG or PNPC substrate in 0.1M phosphate buffer of pH 7.0 to react them for 20 minutes at 30° C. The p-nitrophenol liberated was determined at 400 nm and the amount formed was calculated.
(§5) The enzyme is also active toward cellobiose, PNPG, PNPC, cellulose powder and phosphoric acid-swollen cellulose.

The subject of experiment [2] is Carboxymethylcellulase 5430. As to the kind of experiment: Substrate specificity of Carboxymethylcellulase 5430 (hydrolytic activities, DNS method / p-nitrophenol release). The experiment is classed as biochemical, Bacillus sp. PKM-5430. As to the method:
as §1, §2, §3, §4, §5

Setting [3] is: substrate 0.1%, activity toward CMC at 30° C. taken as 100%.
Where [4] appears, read: substrate 8 mM, 0.1M phosphate buffer pH 7.0, 30° C., activity toward CMC taken as 100%.

For `OC[C@H]1O[C@@H](O[C@H]2[C@H](O)[C@@H](O)C(O)O[C@@H]2CO)[C@H](O)[C@@H](O)[C@@H]1O` (stereo partly drawn) [Cellobiose], the “activity of the enzyme toward substrate” value in experiment [1] and in experiment [2] was “active” each time. Also, the “Relative activity (%)” value in experiment [1] (setting [3]) and in experiment [2] (setting [3]) was 0.4% throughout.

Consider `O=[N+]([O-])c1ccc(O[C@@H]2O[C@H](CO)[C@@H](O[C@@H]3O[C@H](CO)[C@@H](O)[C@H](O)[C@H]3O)[C@H](O)[C@H]2O)cc1` [PNPC, p-nitrophenyl-β-D-cellobioside], for which the “activity of the enzyme toward substrate” value in experiment [1] and in experiment [2] was “active” in each case. Also, the entries for the “Relative activity (%)” value in experiment [1] (setting [4]) and in experiment [2] (setting [4]) were 0.6% and 1.0%, respectively.

For `O=[N+]([O-])c1ccc(O[C@@H]2O[C@H](CO)[C@@H](O)[C@H](O)[C@H]2O)cc1` [PNPG, p-nitrophenyl-β-D-glucopyranoside], the “activity of the enzyme toward substrate” value in experiment [1] and in experiment [2] was “active” throughout. In addition, the “Relative activity (%)” value in experiment [1] (setting [4]) turned out to be 0.2%; in experiment [2] (setting [4]) it was 0.8%.

The values above are taken from US5439816A, “Carboxymethylcellulase isolated from bacillus sp. PKM-5430 (FERM BP-4087)” (Kao Corporation, priority 1991, dated 1995).
